Consider two molecules from patent publication US20040191168A1, “Tumor cell killing by cell cycle checkpoint abrogation combined with Inhibition of the classical mitogen activated protein (map) kinase pathway” (priority 2000, published 2004).

Data set [1] concerns MDA-MB-231 cells. The data set is described as follows: TUNEL apoptosis in MDA-MB-231 cells. In kind it is cell-based, human. Conditions: MDA-MB-231, 24 h; with 150 nM UCN-01; PD184352 10 μM, U0126 5 μM; FIG. 8A. The source says:
Terminal Uridyl-Nucleotide End Labeling (TUNEL) for apoptosis.

Data set [2] concerns U937 cells. Description: S-phase content by BrdUrd incorporation in U937 cells. In kind it is cell-based, human. Conditions: 12 and 18 h, UCN-01 150 nM, PD184352 10 μM, FIG. 3B. As to the method: (§1) Cell Cycle Analysis and S-phase Content. Cells (2×10^6) were pelleted at 4° C., resuspended, fixed at 4° C. with 67% ethanol overnight, and treated on ice with a propidium iodide solution containing 3.8 mM Na citrate, 0.5 mg/ml RNase A (Sigma Chemical Co.), and 0.01 mg/ml propidium iodide (Sigma Chemical Co.) for 3 h. Cell cycle analysis was performed by flow cytometry using Verity Winlist software (Topsham, Me.). Incorporation of BrdUrd was monitored to evaluate S-phase content. For each condition, 2 3 10 6 cells (cell density 5 5 3 10 5 /ml) were incubated with […] BrdUrd for 30 min at 37° C. After washing twice with 1% BSA/PBS, the cells were resuspended in 70% ethanol and fixed for 30 min on ice. The BrdUrd-labeled cells were denatured and nuclei released by incubation with 2 N HCl/0.5% Triton X-100 for 30 min at room temperature. After centrifugation, the pellet was resuspended in 0.1 M […] (pH 8.5) to neutralize the acid. […] After washing once with 0.5% Tween 20/1% BSA/PBS, the cells were resuspended in PBS containing […] propiditun iodide and analyzed by flow cytometry. The percentage of S-phase cells was determined by measuring BrdUrd FITC-positive part in a dot plot of FL-3 (red fluorescence) against FL-1 (green fluorescence).

The test system of data set [3] is U937 cells. The data set is described as follows: Morphological assessment of apoptosis (Wright-Giemsa cytospins) in U937 cells. Format: cell-based, human. Conditions: U937 cells; for apoptosis (cell death): UCN-01 150 nM, FIG. 1A. As to the method: (§2) Experimental Format. All of the experiments were performed using logarithmically growing cells (3-5×10^5 cells/ml). Cell suspensions were placed in sterile 25 cm^2 T-flasks (Corning, Corning, N.Y.) and incubated with MEK or PKC inhibitors for 30 min at 37° C. At the end of this period, UCN-01 (or in some cases, caffeine) was added to the suspension, and the flasks were placed in 37° C./5% CO2 incubator at various intervals, generally 18 h. In some studies, the p38 MAP kinase inhibitor SB203580 was added concurrently with MEK inhibitors. After drug treatment, cells were harvested and subjected to further analysis as described below.
Analysis of Apoptosis. […] For each condition, 5 to 10 randomly selected fields/condition were evaluated, encompassing at least 500 cells (Vrana and Grant, 2001). To confirm the results of morphological analysis, in some cases cells were also evaluated by TUNEL staining (Gorczyca et al., 1993) and assessment of oligonucleosomal DNA fragmentation of total DNA. DNA fragmentation was analyzed by 1.8% agarose gel electrophoresis as described previously (Jarvis et al., 1994). For TUNEL staining, cytocentrifuge preparations were obtained and fixed with 4% formaldehyde. The slides were treated with acetic acid/ethanol (1:2), stained with terminal transferase reaction mixture containing terminal transferase reaction buffer, 0.25 units/ ml terminal transferase, 2.5 mM CoCl2, and 2 pmol fluorescein-12-dUTP (Boehringer Mannheim, Indianapolis, Ind.), and visualized using fluorescence microscopy.

The test system of data set [4] is MCF7 cells. Conditions: MCF7, 24 h; with 150 nM UCN-01; PD184352 10 μM, U0126 5 μM; FIG. 8B. As to the method: Terminal Uridyl-Nucleotide End Labeling (TUNEL) for apoptosis. […] Cells were isolated 24 h after irradiation by trypsinizationi followed by centrifugation onto glass slides (cytospin). Terminal Uridyl-Nucleotide End Labeling (TUNEL) was performed on these cells as described previously [Wang et al., 1999; Park et al., 1999]. Randomly selected fields of fixed cells (150 cells per field, n=5 per slide) were counted initially using propidium iodide counter stain, followed by examination and counting of TUNEL positive staining cells of the same field under FITC/fluorescence light.

Data set [5] deals with U937 cells. Description: Cell cycle analysis (propidium iodide flow cytometry) in U937 cells. The note with it: 18 h, UCN-01 150 nM, PD184352 10 μM, FIG. 3A. Format: cell-based, human. As to the method:
as §1
Background: In flow cytometry, cells or beads pass a laser one at a time.

Data set [6] deals with U937 cells. The data set is described as follows: Loss of mitochondrial membrane potential (reduced DiOC6 uptake, flow cytometry) in U937 cells. In kind it is cell-based, human. Conditions: 18 h, PD184352 10 μM, GFX 1 μM, safingol 2 μM, mean ± SD. The procedure: as §2
Analysis of Mitochondrial Membrane Potential (ΔΨm). Cells 2×10^5 were incubated with 40 nM DiOC6 (Molecular Probes Inc., Eugene, Oreg.) in PBS at 37° C. for 20 min and then analyzed by flow cytometry as described previously (Wang et al., 1999).

The test system of the next data set is DU145 cells. Description: Colony forming (clonogenic) assay in DU145 cells. Conditions: 25 μM PD98059, 150 nM UCN-01, replated 48 h, ± SEM. In kind it is cell-based, human. The procedure: (§3) Colony forming (clonogenic) assay. Cells were plated 36 h prior to experimentation. Cells were pre-treated with MEK1/2 inhibitor as indicated, 2 h prior to exposure. Cells were irradiated (2 Gy). After a further 48 h, cells were isolated by tryptic digestion and single cell suspensions plated on Linbro® plates at densities of 500 cells/well and 1000 cells/well. Colony formation was defined as a colony of 50 cells or greater, 10 days after plating.

For data set [7], the system named is MDA-MB-231 cells. Description: Colony forming (clonogenic) assay in MDA-MB-231 cells. Conditions: MDA-MB-231 (MDA), 25 μM PD98059, 150 nM UCN-01, replated 48 h, ± SEM. In kind it is cell-based, human. As to the method:
as §3

The conditions of data set [8]: Phase I and pharmacokinetic studies (Fuse et al., 1999); cited from earlier work.
A further data set concerns T47D cells. The data set is described as follows: Colony forming (clonogenic) assay in T47D cells. Format: cell-based, human. Conditions: mock irradiated, 25 μM PD98059, 150 nM UCN-01, replated 48 h, ± SEM. The procedure: as §3
Data set [9] relates to MCF7 cells. Description: Colony forming (clonogenic) assay in MCF7 cells. In kind it is cell-based, human. The note with it: 25 μM PD98059, 150 nM UCN-01, replated 48 h, ± SEM. As to the method:
as §3

Molecules are shown by their SMILES. Where “and” joins values, the source holds several entries; their conditions need not be identical. Identical values can stand only once.

Regarding `O=C(NOCC1CC1)c1ccc(F)c(F)c1Nc1ccc(I)cc1Cl` [PD184352], the “apoptosis in combination with UCN-01” value in the data set with MDA-MB-231 cells [1] and with MCF7 cells [4] was “enhanced apoptosis” each time. The “number of BrdUrd-positive (S-phase) cells” value in the data set with U937 cells [2] is given as “modest decline”. The “Apoptotic cells (%)” value in the data set on U937 cells [3] (18 h, PD184352 10 μM, GFX 1 μM, safingol 2 μM, mean ± SD) was 1.8 ± 0.1% and 2.1 ± 0.1%. Also, the “apoptosis (cell death)” value with U937 cells [3] (18 h, PD184352 10 μM) is reported as 10%. Also, in the data set on U937 cells [5], the cell cycle distribution entry was “little effect on the cell cycle distribution”. In addition, the “"Low" DiOC6 (% cells)” value in the data set with U937 cells [6] is 12.1 ± 0.2% and 14.7 ± 1.0%.

For `CN[C@@H]1C[C@H]2O[C@@](C)([C@@H]1OC)n1c3ccccc3c3c4c(c5c6ccccc6n2c5c31)C(=O)N[C@H]4O` [UCN-01, 7-hydroxystaurosporine], the “clonogenic survival (colonies, normalized to control unirradiated cells = 100%)” value in the data set with DU145 cells (DU145, 2 Gy) is reported as 68 ± 2%; with DU145 cells (DU145, mock irradiated), 82 ± 4%; with MDA-MB-231 cells [7] (2 Gy), 55 ± 2%; in the data set with MDA-MB-231 cells [7] (mock irradiated), 97 ± 3%; in the data set with T47D cells, 103 ± 8%; in the data set with MCF7 cells [9] (MCF7, 2 Gy) it was 44 ± 3%. In addition, the “clonogenic survival (colonies, normalized to control unirradiated cells = 100%)” value with MCF7 cells [9] (MCF7, mock irradiated) is given as 69 ± 6%. Moreover, in data set [8], the plasma half-life entry is reported as “very long plasma half-life”. The “number of BrdUrd-positive (S-phase) cells” value in the data set with U937 cells [2] is “no effect”. Further, the “apoptosis (cell death)” value in the data set with U937 cells [3] (18 h, PD184352 10 μM) came out at 10%. Besides, in the data set on U937 cells [3] (24 hr, 100 nM UCN-01, 10 μM LY294002, FIG. 14), the “percentage of apoptotic cells” value was “about 20%”. Further, the cell cycle distribution entry in the data set on U937 cells [5] is recorded as “primarily depleted the G2 M population”.
